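GI50: concentration for 50% inhibition of growth. The concentration for full growth arrest is given as TGI.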
How the values were obtained:
Assay in all cases: NCI tumour cell line growth inhibition, 384-well format
[1] = tested on: 786-0 renal
[2] = tested on: A498 renal
[3] = tested on: A549 NSCLC
[4] = tested on: ACHN renal
[5] = tested on: BT-549 breast
[6] = tested on: CAKI-1 renal
[7] = tested on: CCRF-CEM leukemia
[8] = tested on: COLO 205 colon
[9] = tested on: DU-145 prostate
[10] = tested on: EKVX NSCLC
[11] = tested on: HCC-2998 colon
[12] = tested on: HCT-116 colon
[13] = tested on: HCT-15 colon
[14] = tested on: HL-60(TB) leukemia
[15] = tested on: HOP-62 NSCLC
[16] = tested on: HOP-92 NSCLC
[17] = tested on: HT29 colon
[18] = tested on: IGROV1 ovarian
[19] = tested on: K-562 leukemia
[20] = tested on: KM12 colon
[21] = tested on: LOX IMVI melanoma
[22] = tested on: M14 melanoma
[23] = tested on: MALME-3M melanoma
[24] = tested on: MCF7 breast
[25] = tested on: MDA-MB-231 breast
[26] = tested on: MDA-MB-435 melanoma
[27] = tested on: MDA-MB-468 breast
[28] = tested on: MOLT-4 leukemia
[29] = tested on: NCI-H226 lung
[30] = tested on: NCI-H23 lung

Q: Which results are given for `O=C1Cc2cc(C(=O)NC3C[C@H]4CC[C@@H](C3)N4S(=O)(=O)CC3CCN(CCCC(F)(F)F)CC3)c(Cl)cc2N1` (some centres undefined)?
A: GI50 [1]: > 100 µM; TGI [1]: > 100 µM; GI50 [2]: > 100 µM; TGI [2]: > 100 µM; GI50 [3]: > 51 µM; TGI [3]: > 81 µM; GI50 [4]: > 50.1 µM; TGI [4]: > 77.9 µM; GI50 [5]: > 49.1 µM; TGI [5]: > 73.8 µM; GI50 [6]: > 46.2 µM; TGI [6]: > 65.5 µM; GI50 [7]: > 43.8 µM; TGI [7]: > 57.7 µM; GI50 [8]: > 78 µM; TGI [8]: > 100 µM; GI50 [9]: > 51.2 µM; TGI [9]: > 80 µM; GI50 [10]: > 100 µM; TGI [10]: > 100 µM; GI50 [11]: > 100 µM; TGI [11]: > 100 µM; GI50 [12]: > 42 µM; TGI [12]: > 56.5 µM; GI50 [13]: > 46.3 µM; TGI [13]: > 64.5 µM; GI50 [14]: > 46.1 µM; TGI [14]: > 60.4 µM; GI50 [15]: > 49.6 µM; TGI [15]: > 73.6 µM; GI50 [16]: > 100 µM; TGI [16]: > 100 µM; GI50 [17]: > 100 µM; TGI [17]: > 100 µM; GI50 [18]: > 57.9 µM; TGI [18]: > 100 µM; GI50 [19]: > 42.3 µM; TGI [19]: > 56.5 µM; GI50 [20]: > 100 µM; TGI [20]: > 100 µM; GI50 [21]: 19.2 µM; TGI [21]: 33.8 µM; GI50 [22]: > 100 µM; TGI [22]: > 100 µM; GI50 [23]: > 100 µM; TGI [23]: > 100 µM; GI50 [24]: > 100 µM; TGI [24]: > 100 µM; GI50 [25]: > 100 µM; TGI [25]: > 100 µM; GI50 [26]: > 100 µM; TGI [26]: > 100 µM; GI50 [27]: 25.5 µM; TGI [27]: 57.7 µM; GI50 [28]: > 67 µM; TGI [28]: > 100 µM; GI50 [29]: > 100 µM; TGI [29]: > 100 µM; GI50 [30]: > 52.9 µM
